This passage reports IC50 results from US8034810B2, “Arylsulfonamido-substituted hydroxamic acid derivatives” (Novartis AG, priority 1999, dated 2011).

Counter-ions that a name gives are not always drawn.

A word on the IC50: it is the midpoint of a concentration-inhibition curve.

In the assay the target is T1, MMP2 (gelatinase A) (Homo sapiens, UniProt P08253).
T1 construct: made in house; host or cells: Tn insect cells, baculovirus (pFAST BAC 1)
T1 sequence (P08253 110-660): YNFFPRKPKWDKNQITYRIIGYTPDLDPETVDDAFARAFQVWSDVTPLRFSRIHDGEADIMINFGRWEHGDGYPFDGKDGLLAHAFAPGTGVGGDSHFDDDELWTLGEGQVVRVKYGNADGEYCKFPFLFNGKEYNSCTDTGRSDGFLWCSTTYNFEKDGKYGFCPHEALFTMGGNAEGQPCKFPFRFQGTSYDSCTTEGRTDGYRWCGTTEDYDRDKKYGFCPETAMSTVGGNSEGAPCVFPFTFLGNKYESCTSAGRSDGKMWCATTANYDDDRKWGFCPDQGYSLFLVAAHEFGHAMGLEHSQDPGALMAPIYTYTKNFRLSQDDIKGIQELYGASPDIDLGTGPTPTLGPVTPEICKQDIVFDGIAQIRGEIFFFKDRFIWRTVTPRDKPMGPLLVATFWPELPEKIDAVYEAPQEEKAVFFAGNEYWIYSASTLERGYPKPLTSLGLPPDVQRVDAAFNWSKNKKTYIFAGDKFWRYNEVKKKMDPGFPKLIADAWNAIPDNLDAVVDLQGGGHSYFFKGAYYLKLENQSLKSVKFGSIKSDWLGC
Briefly: In vitro inhibition of MMP2 (gelatinase A), fluorogenic peptide substrate. Type of assay: biochemical. The settings on record: APMA-activated recombinant human proMMP2; substrate 10 μM; 37° C. As for the experimental part: The inhibitory activities of compounds of formula I on MT1-MMP, MMP1 (collagenase 1) and MMP2 (gelatinase A) can be determined as follows:
Stock solutions of substrate (MCA-Pro-Leu-Gly-Leu-Dpa-Ala-Arg-NH2, Knight, C. G., Willenbrock, F., Murphy, G., A novel coumarin-labelled peptide for sensitive continuous assays of the matrix metalloproteinases, FEBS lett., 296, 263-266, (1992)), are prepared in 100% DMSO at a concentration 1.0 mM. Stock solutions of inhibitors are prepared in 100% DMSO. The inhibitor is diluted into the assays from a solution in 100% DMSO, and controls substitute an equal volume of DMSO so that the final DMSO concentration from inhibitor and substrate dilutions in all assays is 6.0%. Assays are performed in assay buffer (150 mM NaCl, 10 mM CaCl2, 50 mM Tris-Cl pH7.5, 0.05% Brij-35) containing 6.0% DMSO once the substrate and inhibitor are diluted into it. The substrate concentration used in the assays is 10 μM. The test is carried out at 37° C. The fluorescence changes are monitored using an excitation wavelength of 320 nm and an emission wavelength of […]. The reaction mixture is added in duplicate to appropriate wells of a 96 well microfluor plate. The reaction mixture is preincubated with the inhibitor for 30 min, the reaction is started by the addition of MMP enzyme and the fluorescence intensity is measured for 10 min. A time point that is on a linear part of the curve is chosen to determine the activity. The inhibition results are expressed as the inhibitor concentrations that produced 50% inhibition (IC50) of the activity in the control (non-inhibited) reaction. In this test, the compounds of the formula I and their pharmacologically acceptable salts have an inhibiting concentration IC50 [μmol/litre] of 0.0001 and 0.030, usually of 0.0002 to 0.010, for MMP2 and an inhibiting concentration IC50 [μmol/litre] of 0.0005 and 0.125, usually of 0.001 to 0.05, for MT1-MMP.
Plasmid: The cDNA for human proMMP2 is supplied by Prof. Motoharu Seiki, Institute of Medical Science, The University of Tokyo. The cDNA encoding a full length on human pro-MMP2 is generated by PCR of cDNA derived from RNA isolated from human HT1080 cells (ATCC# CCL121). The primers to generate this cDNA are GAATTCGATGGAGGCG CTAATGGCCCGG and […] corresponding to full length human pro-MMP2 of the reported cDNA sequence, GenBank accession number J03210. The resulting 2.0 Kb PCR fragment is cloned into EcoR1/Xho 1 site of pFAST BAC 1 vector (pBAC-MMP2) (Collier, I. E., Wilhelm, S. M., Eisen, A. Z., Manner, B. L., Grant, G. A., Seltzer, J. L., Kronberger, A., He, C., Bauer, E. A. and Goldberg, G. I. J. Biol. Chem., 263:6579-6587, 1988).
Expression and Purification: For baculovirus expression of r-proMMP2, pBAC-MMP2 is transformed into DH10BAC competent cells to produce a r-proMMP2 bacmid DNA. The recombinant bacmid DNA is transfected into cultured insect cells (Tn cells) with Cellfectin reagent (Gibco BRL). Recombinant baculovirus are plaque purified to homogeneity and are used to generate high titer stocks of the recombinant baculovirus. Expression of r-proMMP2 is confirmed by gelatin zymography.
Culture fluids of Tn cells infected with baculovirus are centrifuged and filtrated through a […] pore size filter to remove cell debris. The recombinant proMMP2 as absorbed to gelatin Sepharose 4B (Pharmacia Biotech) in equilibration buffer of in 25 mM Tris-HCl (pH 7.5), 1 M NaCl, 10 mM CaCl2, 0.05% Briji 35 at 4° C. After washing the beads with equilibration buffer, r-proMMP2 as eluted with equilibration buffer containing 10% DMSO. The enzyme are stored at 4° C. until activation. For assay, the purified proMMP2 is activated with 1 mM APMA for 1 hr at 37° C.
Regarding “2-[(Cyclopropylmethoxy-benzenesulfonyl)-(4-[1,2,4]triazol-1-yl-benzyl)-amino]-N-hydroxyacetamide-hydrochloride salt [Example 82b]”, the IC50 was 10.4 nM.
As for `COc1ccc(CN(CC(=O)NO)S(=O)(=O)c2ccc(OCCCCl)cc2)cc1` [Example 68, 2-{[4-(3-chloro-propoxy)-benzenesulfonyl]-(4-methoxy-benzyl)amino}-N-hydroxy-acetamide], the figure is 0.7 nM.
As to `C#CCOc1ccc(S(=O)(=O)N(CC(=O)NO)Cc2ccc(OC)cc2)cc1` [Example 75, [(4-methoxy-benzyl)-[4-prop-2-ynyloxy-benzenesulfonyl]-amino]-N-hydroxy-acetamide], the 50% inhibitory concentration (IC50) is 1 nM.
Regarding `C=CCCOc1ccc(S(=O)(=O)N(CC(=O)NO)Cc2ccc(-n3cncn3)cc2)cc1` [Example 79, 2-[(4-but-3-enyloxy-benzenesulfonyl)-(4-[1,2,4]triazol-1-yl-benzyl)-amino]-N-hydroxy-acetamide-hydrochloride salt], the concentration for half-maximal inhibition (IC50) was found to be 0.2 nM.
The value for `C=CCCOc1ccc(S(=O)(=O)N(CC(=O)NO)Cc2ccc(-n3ccnc3)cc2)cc1` [Example 80, 2-[(4-But-3-enyloxy-benzenesulfonyl)-(4-imidazol-1-yl-benzyl)-amino]-N-hydroxy-acetamide-hydrochloride] was 8 nM.
Turning to `C=CCCOc1ccc(S(=O)(=O)N(CC(=O)NO)Cc2ccc(N3CCOCC3)cc2)cc1` [Example 81, 2-[(4-But-3-enyloxy-benzenesulfonyl)-(4-morpholin-4-yl-benzyl)-amino]-N-hydroxy-acetamide-hydrochloride], the IC50 came to 10.4 nM.
As for `O=C(CN(Cc1ccc(-n2cncn2)cc1)S(=O)(=O)c1ccc(OCCC2CC2)cc1)NO` [Example 82a], the figure is 40.2 nM; as for `O=C(CN(Cc1ccc(-n2cncn2)cc1)S(=O)(=O)c1ccc(OCc2ccoc2)cc1)NO` [Example 82c], 5.3 nM.
The value for `C=CCCOc1ccc(S(=O)(=O)N(CC(=O)NO)Cc2cccc(F)n2)cc1` [Example 83a, 2-([4-But-3-enyloxy-benzenesulfonyl]-(6-fluoro-pyridine-2-yl)methyl-amino)-N-hydroxyacetamide] was 2.1 nM.
As for `C=CCCOc1ccc(S(=O)(=O)N(CC(=O)NO)Cc2ccc(N3CCCC3)cc2)cc1` [Example 84a, 2-[(4-But-3-enyloxy-benzenesulfonyl)-(4-(pyrrolidin-1-yl)-benzyl)-amino]-N-hydroxyacetamide-hydrochloride], the figure is 14.7 nM.
